Test results as given in patent publication US20230126310A1 (priority 2020, published 2023).

System: SARS-CoV-2
Conditions: for % Inh. (% Inhibition of SARS-CoV-2): 10 µM

`Cc1c(Cn2c(C)nc3c(C(=O)O)cc(N4CCOCC4)cc32)cccc1C(F)(F)F` [GSK2636771] was tested, and the “% Inh. (% Inhibition of SARS-CoV-2)” value was 88.1%.
With `CC1(C)CC(=O)c2c(C(F)(F)F)nn(-c3ccc(C(N)=O)c(N[C@H]4CC[C@H](OC(=O)CN)CC4)c3)c2C1` [PF-04929113 (SNX-5422)] the “% Inh. (% Inhibition of SARS-CoV-2)” value was 91.3%.
For `CC(=O)O[C@H]1C[C@H](O[C@H]2[C@@H](O)C[C@H](O[C@H]3[C@@H](O)C[C@H](O[C@H]4CC[C@@]5(C)[C@H](CC[C@@H]6[C@@H]5C[C@@H](O)[C@]5(C)[C@@H](C7=CC(=O)OC7)CC[C@]65O)C4)O[C@@H]3C)O[C@@H]2C)O[C@H](C)[C@H]1O[C@@H]1O[C@H](CO)[C@@H](O)[C@H](O)[C@H]1O` [LANATOSIDE C], the “% Inh. (% Inhibition of SARS-CoV-2)” value was 63.7%.
In the case of MONENSIN SODIUM, the “% Inh (% inhibition of virus infection)” value (comparative experiments, Examples 1 and 2) was 103.2%.
With `COc1ccc(CCN(C)CCCOc2ccc(S(=O)(=O)c3c(C(C)C)c4ccccc4n3C)cc2)cc1OC.O=C(O)C(=O)O` [SR-33805 oxalate] the “% Inh. (% Inhibition of SARS-CoV-2)” value was 67.7%.
`CCOC(=O)c1c(C)[nH]c2ccc3c(c12)CN1CCc2cc(OC)ccc2C1O3` (stereo not drawn) [PD-102807] was tested, and the “% Inh. (% Inhibition of SARS-CoV-2)” value was 121.8%.
For `c1ccc(C(NCc2cccnc2)(c2ccccc2)c2ccccc2)cc1` [UCL-2077], the “% Inh. (% Inhibition of SARS-CoV-2)” value was 70.7%.
In the case of `CNCc1ccc(C)c(NC(=O)c2ccc(Nc3nc(-c4ccccc4)c4ccccc4n3)cc2)c1` [BMS-833923 (XL139)], the “% Inh. (% Inhibition of SARS-CoV-2)” value was 68.8%.
With `Cc1ccc(-c2nn(C(C)(C)C)c3ncnc(N)c23)cc1` [PP-1] the “% Inh. (% Inhibition of SARS-CoV-2)” value was 121.9%.
`Nc1cccc(CNC(=O)c2ccc(Oc3ccc(OCc4cccc(F)c4)cc3)nc2)c1` [YM-244769] was tested, and the “% Inh. (% Inhibition of SARS-CoV-2)” value was 60.4%.
With `COc1ccccc1C1(O)CCN(CCCn2c3ccccc3c3ccccc32)CC1` [NNC-05-2090] the “% Inh. (% Inhibition of SARS-CoV-2)” value was 71.8%.
Taltobulin (trifluoroacetate) was tested, and the “% Inh. (% Inhibition of SARS-CoV-2)” value was 83.8%.
For `COc1ccc(C(=O)N2CCCc3cc(C4=NNC(=O)SC4C)ccc32)cc1OC` (stereo not drawn) [EMD-53998], the “% Inh. (% Inhibition of SARS-CoV-2)” value was 79.6%.
For `Cc1ccc2c(=O)c3ccccc3n(CCCN)c2c1C.O=C(O)/C=C\C(=O)O` [ER-27319 maleate], the “% Inh. (% Inhibition of SARS-CoV-2)” value was 101.0%.
`N[C@H]1CCN(O)C1=O` [HA-966-(S)-(−)] was tested, and the “% Inh. (% Inhibition of SARS-CoV-2)” value was 52.3%.
In the case of `COc1ccc2nc3c(c(N)c2c1)CCCC3` [7-methoxytacrine], the “% Inh. (% Inhibition of SARS-CoV-2)” value was 58.7%.
With `Cc1ccc([N+](=O)[O-])cc1S(=O)(=O)N(C)/N=C/c1cnc2ccc(Br)cn12` [PIK-75] the “% Inh. (% Inhibition of SARS-CoV-2)” value was 87.6%.
With `COc1cc(SC)ccc1C(=O)N1CCC(Cc2ccccc2)CC1` [JX-401] the “% Inh. (% Inhibition of SARS-CoV-2)” value was 71.2%.
For `CC(C)(N)c1cc(C(=O)N[C@@H]2CCc3ccc(Oc4ccnc5c4CCC(=O)N5)cc3C2)cc(C(F)(F)F)c1` [ML-786], the “% Inh. (% Inhibition of SARS-CoV-2)” value was 105.5%.
In the case of `CC[N+](C)(CC)CCC[n+]1c(-c2ccccc2)c2cc(N)ccc2c2ccc(N)cc21.[I-].[I-]` [propidium-iodide], the “% Inh. (% Inhibition of SARS-CoV-2)” value was 69.7%.
In the case of `O=C(Nc1ccc(CN2CCOCC2)cc1)c1ccc(-c2cccc(Cl)c2)o1` [CID-2011756], the “% Inh. (% Inhibition of SARS-CoV-2)” value was 97.0%.
`CN1CC[C@@H](c2c(O)cc(O)c3c(=O)cc(-c4ccccc4Cl)oc23)[C@@H]1CO.Cl` [P276-00] was tested, and the “% Inh. (% Inhibition of SARS-CoV-2)” value was 94.4%.
`CCOc1cc(C(=O)Nc2ccc(Cl)c(-c3nc4ccccc4[nH]3)c2)cc(OCC)c1OCC` [SANT-2] was tested, and the “% Inh. (% Inhibition of SARS-CoV-2)” value was 84.1%.
For `CCCCCCCCCCCCCCCC[N+](C)(C)C.[Br-]` [CETRIMONIUM BROMIDE], the “% Inh. (% Inhibition of SARS-CoV-2)” value was 87.7%.
With `C[C@]12CC[C@H]3[C@@H](CC[C@]4(O)C[C@@H](O)CC[C@]34C=O)[C@@]1(O)CC[C@@H]2C1=CC(=O)OC1` [Strophantidin] the “% Inh. (% Inhibition of SARS-CoV-2)” value was 67.1%.
`CN(C)C(=O)C(=O)c1cn(C)c2cc(Cl)c(C(=O)N3CCC(Cc4ccc(F)cc4)CC3)cc12` [SX-011] was tested, and the “% Inh. (% Inhibition of SARS-CoV-2)” value was 94.1%.
In the case of `CC(=O)N1CCN(CCOc2ccc(C3CCN(C4=Nn5c(nnc5C(F)(F)F)CC4)CC3)cc2)CC1` [AZD3514], the “% Inh. (% Inhibition of SARS-CoV-2)” value was 96.8%.
